# Results: US12612410B2 (CHILDREN'S HOSPITAL MEDICAL CENTER, priority 2020, dated 2026)
# Assays:
# NF-κB [1] = test: NF-kB SEAP reporter assay in THP-1-Blue NF-κB cells, Pam3CSK4 stimulation; assay type: cell-based; conditions: Pam3CSK4 1 ng/mL, read-out: NF-κB Pam3SCK4 IC50
# Method: (§1) THP-1-Blue NF-xB cells (InvivoGen) carrying a stable integrated NF-κB-inducible secreted embryonic alkaline phosphatase (SEAP) reporter construct were plated at a concentration of 1×10^5 cells per well. The cells were stimulated with Pam3CSK4 (1 ng/mL) or hIL1B (1 ng/mL). After 10-20 minutes, the cells were then treated with vehicle (DMSO) or serial dilutions of the test compounds (10 doses tested for each test compound, with a 1:10 dilution series starting at 1 μM or 3 μM) with a final volume of 200 μL for 24 hours at 37° C. After 24 hours, the cells were centrifuged and 20 μL supernatant was incubated with 180 μL QUANTI-Blue reagent at 37° C. for 30-60 minutes. The levels of NF-κB-induced was measured in a microplate reader at 620 nm.
# IRAK4 = target: T1, IRAK4 (Homo sapiens, UniProt Q9NWZ3); test: RBC HotSpot Kinase Assay, IRAK4; assay type: biochemical; parameters: purchased Reaction Biology (RBC), HotSpot kinase assay; conditions: isolated kinase, 33P-ATP
# T1 sequence (Q9NWZ3 1-460): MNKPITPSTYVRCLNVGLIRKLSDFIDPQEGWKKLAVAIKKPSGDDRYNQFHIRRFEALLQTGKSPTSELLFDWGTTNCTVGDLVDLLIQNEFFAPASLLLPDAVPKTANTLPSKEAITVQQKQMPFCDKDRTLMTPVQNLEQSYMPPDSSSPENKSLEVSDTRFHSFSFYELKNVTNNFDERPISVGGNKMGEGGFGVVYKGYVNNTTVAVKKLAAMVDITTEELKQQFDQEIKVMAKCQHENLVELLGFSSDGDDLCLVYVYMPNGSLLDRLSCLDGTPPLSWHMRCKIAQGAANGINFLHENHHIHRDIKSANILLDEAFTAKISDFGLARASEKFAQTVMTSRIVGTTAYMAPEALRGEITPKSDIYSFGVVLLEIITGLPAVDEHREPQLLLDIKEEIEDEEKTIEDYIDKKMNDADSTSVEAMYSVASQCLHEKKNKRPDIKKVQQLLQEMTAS
# Method in brief: (§2)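 Functional radiometric activity assay: kinase + substrate + cofactors in Hepes pH 7.5/MgCl2/EGTA/Brij35/BSA/Na3VO4/DTT, 1% DMSO; cmpd preincubation 20 min RT; 33P-ATP start, 2 h RT; P81 filter-binding readout.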
# IRAK1 = target: T2, IRAK1 (Homo sapiens, UniProt P51617); test: RBC HotSpot Kinase Assay, IRAK1; assay type: biochemical; conditions: isolated kinase, 33P-ATP
# T2 construct: purchased Reaction Biology (RBC), HotSpot kinase assay
# Method in brief: as §2
# FLT3 = target: T3, FLT3 (Homo sapiens, UniProt P36888); test: RBC HotSpot Kinase Assay, FLT3; assay type: biochemical; parameters: purchased Reaction Biology (RBC), HotSpot kinase assay; conditions: isolated kinase, 33P-ATP
# T3 sequence (P36888 27-993): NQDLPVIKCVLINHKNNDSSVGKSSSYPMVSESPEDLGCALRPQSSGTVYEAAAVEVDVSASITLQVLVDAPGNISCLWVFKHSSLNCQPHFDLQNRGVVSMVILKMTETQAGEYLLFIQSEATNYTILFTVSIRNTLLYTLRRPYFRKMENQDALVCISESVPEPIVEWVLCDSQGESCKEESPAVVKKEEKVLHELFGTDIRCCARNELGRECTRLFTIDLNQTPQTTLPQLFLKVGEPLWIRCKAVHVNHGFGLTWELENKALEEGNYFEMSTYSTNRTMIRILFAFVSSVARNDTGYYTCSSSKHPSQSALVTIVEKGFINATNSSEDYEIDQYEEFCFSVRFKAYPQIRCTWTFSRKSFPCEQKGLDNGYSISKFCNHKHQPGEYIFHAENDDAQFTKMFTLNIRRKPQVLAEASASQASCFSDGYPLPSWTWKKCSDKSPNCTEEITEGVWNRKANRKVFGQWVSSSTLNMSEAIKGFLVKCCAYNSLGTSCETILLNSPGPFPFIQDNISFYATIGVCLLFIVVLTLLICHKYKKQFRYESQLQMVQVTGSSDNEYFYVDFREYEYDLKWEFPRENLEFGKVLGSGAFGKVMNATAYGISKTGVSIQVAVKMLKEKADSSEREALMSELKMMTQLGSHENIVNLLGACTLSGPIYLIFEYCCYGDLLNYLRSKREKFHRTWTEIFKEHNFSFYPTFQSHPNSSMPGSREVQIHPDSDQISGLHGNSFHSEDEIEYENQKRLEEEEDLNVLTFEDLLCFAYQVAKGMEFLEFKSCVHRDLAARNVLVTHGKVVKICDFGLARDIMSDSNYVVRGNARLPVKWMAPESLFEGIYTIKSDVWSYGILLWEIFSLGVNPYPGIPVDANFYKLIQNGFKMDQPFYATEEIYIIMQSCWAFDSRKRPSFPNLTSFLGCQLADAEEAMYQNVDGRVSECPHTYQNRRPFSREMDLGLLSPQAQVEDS
# Method in brief: as §2
# NF-κB [2] = test: NF-kB SEAP reporter assay in THP-1-Blue NF-κB cells, hIL1B stimulation; assay type: cell-based; conditions: hIL1B 1 ng/mL, read-out: NF-κB IL1B IC50
# Method: as §1
# MOLM14 D835Y cells = test: MOLM14 D835Y cell viability assay (Cell Titer Glo); assay type: cell-based; conditions: Homo sapiens, MOLM-14, 48 h
# Method in brief: (§3)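 MOLM14 cells carrying FLT3 D835Y or F691L were seeded at 1000 cells/well in RPMI-1640 with 20% FBS and dosed at 22 concentrations, 1:2 dilutions from 10 μM. Viability after 48 h by Cell Titer Glo luminescence; 2.3 μM bortezomib as cytotoxic control.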
# MOLM14 F691L cells = test: MOLM14 F691L cell viability assay (Cell Titer Glo); assay type: cell-based; conditions: Homo sapiens, MOLM-14, 48 h
# Method in brief: as §3
# T2 sequence (P51617 whole entry): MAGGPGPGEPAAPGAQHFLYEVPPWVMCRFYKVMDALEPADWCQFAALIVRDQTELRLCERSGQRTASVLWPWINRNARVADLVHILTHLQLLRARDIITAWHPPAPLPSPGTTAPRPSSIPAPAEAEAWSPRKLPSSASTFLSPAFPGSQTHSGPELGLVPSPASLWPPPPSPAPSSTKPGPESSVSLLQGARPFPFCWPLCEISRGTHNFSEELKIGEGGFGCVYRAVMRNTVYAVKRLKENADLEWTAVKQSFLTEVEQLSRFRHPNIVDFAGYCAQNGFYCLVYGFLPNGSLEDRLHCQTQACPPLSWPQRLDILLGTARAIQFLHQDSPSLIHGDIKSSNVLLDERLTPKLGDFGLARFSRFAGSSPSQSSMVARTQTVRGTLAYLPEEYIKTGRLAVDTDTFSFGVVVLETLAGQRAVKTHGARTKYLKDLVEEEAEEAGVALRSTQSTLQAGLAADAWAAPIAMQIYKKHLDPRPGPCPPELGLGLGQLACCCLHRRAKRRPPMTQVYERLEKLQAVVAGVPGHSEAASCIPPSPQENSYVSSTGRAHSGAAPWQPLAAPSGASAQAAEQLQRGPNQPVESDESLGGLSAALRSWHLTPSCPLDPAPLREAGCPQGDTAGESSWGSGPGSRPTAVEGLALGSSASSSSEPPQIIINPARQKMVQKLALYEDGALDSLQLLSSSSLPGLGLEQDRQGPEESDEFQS
IC50 (NF-κB [1]; 24 h) [nM],IC50 (IRAK4) [nM],IC50 (IRAK1) [nM],IC50 (FLT3) [nM],IC50 (NF-κB [2]; 24 h) [nM],IC50 (NF-κB [1]; 24 hours) [nM],IC50 (MOLM14 D835Y cells) [nM],IC50 (MOLM14 F691L cells) [nM],IC50 (NF-κB [2]; 24 hours) [nM],Compound
34,2,833,< 0.5,356,,,,,"F[C@H]1CNC[C@@H]1Nc1cccc(-c2cnc3cnc(OCC4CC4)cn23)n1 [compound 60, 6-(6-(cyclopropylmethoxy)imidazo[1,2-a]pyrazin-3-yl)-N-((3S,4S)-4-fluoropyrrolidin-3-yl)pyridin-2-amine]"
,2,49,0.9,,20,7,39,263,"O=S1(=O)CCCN1c1cn2c(-c3cccc(N[C@@H]4CCCNC4)n3)cnc2cn1 [Compound 96, (R)-2-(3-(6-(piperidin-3-ylamino)pyridin-2-yl)imidazo[1,2-a]pyrazin-6-yl)isothiazolidine 1,1-dioxide]"
17,1,190,< 0.5,40,,,,,"F[C@H]1CNC[C@@H]1Nc1cccc(-c2cnc3cnc(OCC(F)(F)F)cn23)n1 [Compound 36, N-((3S,4S)-4-fluoropyrrolidin-3-yl)-6-(6-(2,2,2-trifluoroethoxy)imidazo[1,2-a]pyrazin-3-yl)pyridin-2-amine]"
24,< 0.5,696,< 0.5,144,,,,,"CC(C)Oc1cn2c(-c3cccc(N[C@H]4CNC[C@@H]4F)n3)cnc2cn1 [Compound 59, N-((3S,4S)-4-fluoropyrrolidin-3-yl)-6-(6-isopropoxyimidazo[1,2-a]pyrazin-3-yl)pyridin-2-amine]"
